Laboratory results from patent US7098039B1, “Analysis of a sample to determine its characteristic cycle time” (The Victoria University of Manchester, priority 1998, dated 2006).
Where two headings read alike, the source gives them in different places.

Tested on: peptide sequence VCDWWGWGIC (mimic of the binding of drugs by the drug efflux protein P-glycoprotein)
Assay: Quenching of the natural tryptophan fluorescence of peptide […] on drug binding (FIG. 7h titration)
Settings: for relative intensity of the peak at 359.25 nm, indicating the degree of quenching: peptide 49.1 μM, 0.1 M Tris pH 7.5
Excerpt: The system illustrated in FIG. 7 may be a drug binding to a protein or peptide comprising fluorescent amino acids at the site of binding.
The number in brackets, following each titration, is the relative intensity of the peak at 359.25 nm, indicating the degree of quenching.

[1] = peptide VCDWWGWGIC, linear sequence or cyclised, result in words

In the case of `C[C@H]1O[C@@H](O[C@H]2[C@@H](O)C[C@H](O[C@H]3[C@@H](O)C[C@H](O[C@H]4CC[C@@]5(C)[C@H](CC[C@@H]6[C@@H]5C[C@@H](O)[C@]5(C)[C@@H](C7=CC(=O)OC7)CC[C@]65O)C4)O[C@@H]3C)O[C@@H]2C)C[C@H](O)[C@@H]1O` [Digoxin], the “natural tryptophan fluorescence of the peptide quenched by the drug” value (“natural tryptophan fluorescence” for short) [1] is reported as “quenched”.
`CO[C@@H]1[C@@H](OC(N)=O)[C@@H](O)[C@H](Oc2ccc3c(O)c(NC(=O)c4ccc(O)c(CC=C(C)C)c4)c(=O)oc3c2C)OC1(C)C` [Novobiocin] was tested, and the “natural tryptophan fluorescence” value [1] was “quenched”.
`O=c1c(-c2ccc(O)cc2)coc2cc(O)cc(O)c12` [Genistein] was tested, and the “natural tryptophan fluorescence” value (peptide […], linear sequence or cyclised, result in words) was “quenched”.
With `CC[C@]1(O)C[C@@H]2CN(CCc3c([nH]c4ccccc34)[C@@](C(=O)OC)(c3cc4c(cc3OC)N(C)[C@H]3[C@@](O)(C(=O)OC)[C@H](OC(C)=O)[C@]5(CC)C=CCN6CC[C@]43[C@@H]65)C2)C1` [Vinblastine] the “natural tryptophan fluorescence” value [1] was “quenched”.
`CC[C@H]1OC(=O)[C@H](C)[C@@H](O[C@H]2C[C@@](C)(OC)[C@@H](O)[C@H](C)O2)[C@H](C)[C@@H](O[C@@H]2O[C@H](C)C[C@H](N(C)C)[C@H]2O)[C@](C)(O)C[C@@H](C)C(=O)[C@H](C)[C@@H](O)[C@]1(C)O` [Erythromycin] was tested, and the “natural tryptophan fluorescence” value [1] was “quenched”.
With Cyclosporin A the “natural tryptophan fluorescence” value [1] was “quenched”.
`COc1cccc2c1C(=O)c1c(O)c3c(c(O)c1C2=O)C[C@@](O)(C(=O)CO)C[C@@H]3O[C@H]1C[C@H](N)[C@H](O)[C@H](C)O1` [Doxorubicin] was tested, and the “natural tryptophan fluorescence” value [1] was “quenched”, the “relative intensity of the peak at 359.25 nm, indicating the degree of quenching” value (“relative intensity of the peak” for short) (peptide:doxorubicin 1:0.1, 2.9 ml, without doxorubicin normalised at 999.99) was 917.99 and the “relative intensity of the peak” value (peptide:doxorubicin 1:0.2, without doxorubicin 999.99) was 835.53. The “relative intensity of the peak” value (peptide:doxorubicin 1:0.3, without doxorubicin 999.99) was 769.34, the “relative intensity of the peak” value (peptide:doxorubicin 1:0.4, without doxorubicin 999.99) was 704.25 and the “relative intensity of the peak” value (peptide:doxorubicin 1:0.5, without doxorubicin 999.99) was 633.91. The “relative intensity of the peak” value (peptide:doxorubicin 1:0.6, without doxorubicin 999.99) was 594.31, the “relative intensity of the peak” value (peptide:doxorubicin 1:0.7, without doxorubicin 999.99) was 547.73 and the “relative intensity of the peak” value (peptide:doxorubicin 1:0.8, without doxorubicin 999.99) was 498.54. For the same molecule, the “relative intensity of the peak” value (peptide:doxorubicin 1:0.9, without doxorubicin 999.99) was 457.70, the “relative intensity of the peak” value (peptide:doxorubicin 1:1, without doxorubicin 999.99) was 415.96 and the “relative intensity of the peak” value (peptide:doxorubicin 1:1.1, without doxorubicin 999.99) was 390.24.
`CN1C(=O)CN=C(c2ccccc2)c2cc(Cl)ccc21` [Diazepam] was tested, and the “natural tryptophan fluorescence” value was “quenched”.
In the case of `COC(=O)[C@H]1[C@H]2C[C@@H]3c4[nH]c5cc(OC)ccc5c4CCN3C[C@H]2C[C@@H](OC(=O)c2cc(OC)c(OC)c(OC)c2)[C@@H]1OC` [Reserpine], the “natural tryptophan fluorescence” value [1] is reported as “quenched”.
In the case of `N[C@@H](Cc1ccc(N(CCCl)CCCl)cc1)C(=O)O` [Melphalan], the “natural tryptophan fluorescence” value [1] is reported as “quenched”.
